Data on 55 molecules can be found in US12065416B2, “cGAS antagonist compounds” (IMMUNESENSOR THERAPEUTICS, INC., priority 2016, dated 2024).

pIC50: −log10 of the molar value.

In the test the target is T1, recombinant cGAS (aa147-522) (Homo sapiens, UniProt Q8N884).
T1 construct: recombinant cGAS (aa147-522); His6-SUMO (N, cleaved yes); made in house; host or cells: E. coli BL21/pLys
In words: In vitro assay for inhibition of cGAS activity (ATP consumption, Kinase Glo). The format is biochemical. Particulars: 37° C. 20 minutes, read-out: Activity (Inhibition of cGAS enzyme activity in vitro, IC50). Here is the method: cDNA encoding full-length or amino acids 147-520 of human cGAS is inserted into a modified pET28a vector containing an in-frame His6-SUMO tag. The E. coli strain BL21/pLys harboring the plasmid is induced with 0.5 mM IPTG at 18° C. overnight. His6-SUMO tag was removed by a SUMO proease following purification of the HiS-SUMO-cGAS as described previously (Sun et al, 2013, Science 339, 786).
A40 μL mixture containing 1.5 ng/μL of recombinant cGAS (aa147-522) and serial dilutions of a test compound or DMSO was added to a 96-well plate and incubated at 37° C. for 20 minutes. At the end of reaction, 20 μL of Kinase Glo (Promega) was added and chemiluminescence measured with a luminometer. Inhibitory effect of a compound is evaluated by plotting percentage of ATP consumption against logarithm of compound concentrations. IC50 value was calculated using Graphpad (Sigma).
A general note: In Kinase-Glo more light means more ATP remaining.

T1 sequence (Q8N884 147-522): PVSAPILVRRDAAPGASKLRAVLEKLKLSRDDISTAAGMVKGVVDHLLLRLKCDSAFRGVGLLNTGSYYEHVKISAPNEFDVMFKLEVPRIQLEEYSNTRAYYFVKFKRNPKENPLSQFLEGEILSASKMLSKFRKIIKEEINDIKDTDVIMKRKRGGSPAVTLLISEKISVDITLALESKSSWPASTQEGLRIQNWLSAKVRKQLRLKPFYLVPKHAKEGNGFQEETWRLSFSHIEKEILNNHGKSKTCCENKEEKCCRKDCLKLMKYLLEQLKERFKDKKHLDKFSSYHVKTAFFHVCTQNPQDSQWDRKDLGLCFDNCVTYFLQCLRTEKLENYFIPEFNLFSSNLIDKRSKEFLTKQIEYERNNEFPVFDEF

Usually pIC50 stands for the negative decadic logarithm of the IC50, by convention in mol/L. Consider `CN1C(=O)S/C(=C\c2cc(OCc3cnc([S+](C)[O-])nc3Cl)c(O)cc2Br)C1=O` (stereo not shown) [Ex214], for which the pIC50 was 5.00 to 6.30. Under `Cc1nc([S+](C)[O-])nc(C)c1COc1cc(/C=C2\SC(=O)N(C)C2=O)c(Br)cc1O` (stereo not shown) [Ex215] stands 5.00 to 6.30; under `CN1C(=O)S/C(=C\c2cc(OCc3cnc(O)nc3)c(O)cc2Br)C1=O` [Ex217], 5.00 to 6.30. Under `CN1C(=O)S/C(=C\c2cc(OCc3cncnc3O)c(O)cc2Br)C1=O` [Ex218] stands at least 6.30. For the molecule `CN1C(=O)S/C(=C\c2cc(OCc3cnc(S)nc3)c(O)cc2Br)C1=O` [Ex219], the pIC50 is 5.00 to 6.30. Under `COc1nc(S(C)(=O)=O)ncc1COc1cc(/C=C2\SC(=O)N(C)C2=O)c(Br)cc1O` [Ex220] stands 5.00 to 6.30; under `CN1C(=O)S/C(=C\c2cc(OCc3cnc(S(C)(=O)=O)nc3Cl)c(O)cc2Br)C1=O` [Ex221], 5.00 to 6.30; under `COc1nc(N)ncc1COc1cc(/C=C2\SC(=O)N(C)C2=O)c(Br)cc1O` [Ex222], 5.00 to 6.30. The value for `Cc1nc(N)nc(C)c1COc1cc(/C=C2\SC(=O)N(C)C2=O)c(Br)cc1O` [Ex223] was 5.00 to 6.30; that for `CN1C(=O)S/C(=C\c2cc(OCc3cncc(NC(=O)c4cccnc4)c3)c(O)cc2Br)C1=O` [Ex224] was 5.00 to 6.30. In the case of `CN1C(=O)S/C(=C\c2cc(OCc3cncc(NC(=O)c4ccncc4)c3)c(O)cc2Br)C1=O` [Ex225], the pIC50 is at most 5.00.

In the case of `CC(C)C(=O)Nc1cncc(COc2cc(/C=C3\SC(=O)N(C)C3=O)c(Br)cc2O)c1` [Ex226], the pIC50 was at most 5.00.

As for `CN1C(=O)S/C(=C\c2cc(OCc3cncc(NCc4ccccn4)c3)c(O)cc2Br)C1=O` [Ex227], the pIC50 is at most 5.00. In the case of `CN1C(=O)S/C(=C\c2cc(OCc3cncc(NCc4ccncc4)c3)c(O)cc2Br)C1=O` [Ex228], the negative-log IC50 (pIC50) is at most 5.00.

As for `CC(C)CNc1cncc(COc2cc(/C=C3\SC(=O)N(C)C3=O)c(Br)cc2O)c1` [Ex229], the negative-log IC50 (pIC50) was at most 5.00. As to `CN1C(=O)S/C(=C\c2cc(Oc3ccncc3)c(O)cc2Br)C1=O` [Ex230], the pIC50 was at most 5.00.

In the case of `CN1C(=O)S/C(=C\c2cc(Oc3ccc(=O)[nH]c3)c(O)cc2Br)C1=O` [Ex231], the negative logarithm of the IC50 (pIC50) is 5.00 to 6.30. The value for `CN1C(=O)S/C(=C\c2cc(OCc3cn(-c4ccccc4)nn3)c(O)cc2Br)C1=O` [Ex232] was at most 5.00; that for `Cc1nc(N)ncc1COc1cc(/C=C2\Sc3ncccc3C2=O)c(Br)c(F)c1O` [ExA8] was at least 6.30; that for `CSc1nc([S+](C)[O-])ncc1COc1cc(/C=C2\Sc3ncccc3C2=O)c(Br)c(F)c1O` (stereo not shown) [ExA16] was at least 6.30. The value for `CN1C(=O)S/C(=C\c2cc(OCC(F)(F)c3cnc(N)nc3)c(O)c(F)c2Br)C1=O` [ExA20] was 5.00 to 6.30; that for `CN1C(=O)S/C(=C\c2cc(OCC(=O)Nc3nncs3)c(O)c(F)c2Br)C1=O` [ExB1] was 5.00 to 6.30. The value for `CN1C(=O)S/C(=C\c2cc(Oc3cccc4ncccc34)c(O)cc2Br)C1=O` [ExB5] was at most 5.00. With `CN1C(=O)S/C(=C\c2cc(OCC3(c4cnc(N)nc4)CC3)c(O)c(F)c2Br)C1=O` [ExB6], the negative logarithm of the IC50 (pIC50) was 5.00 to 6.30. Under `CC(=O)c1cc(N)ccc1Oc1cc(/C=C2\SC(=O)N(C)C2=O)c(Br)c(F)c1O` [ExB7] stands at most 5.00; under `CC(Cc1cnc(N)nc1)Oc1cc(/C=C2\SC(=O)N(C)C2=O)c(Br)c(F)c1O` (stereo not shown) [ExB9], 5.00 to 6.30; under `CC(Oc1cc(/C=C2\SC(=O)N(C)C2=O)c(Br)c(F)c1Oc1cnc(N)s1)c1cnc(N)nc1` (stereo not shown) [ExB10], 5.00 to 6.30. For the molecule `COc1cccc(Oc2cc(/C=C3\SC(=O)N(C)C3=O)c(Br)cc2O)c1N` [ExB11], the negative-log IC50 (pIC50) is at most 5.00. `CN1C(=O)S/C(=C\c2cc(Oc3cccc(O)c3N)c(O)cc2Br)C1=O` [ExB12]: the pIC50 was at most 5.00. Regarding `Cc1nc2c(Oc3cc(/C=C4\SC(=O)N(C)C4=O)c(Br)cc3O)cccc2o1` [ExB13], the pIC50 is 5.00 to 6.30. The value for `CN1C(=O)S/C(=C\c2cc3c(-c4ccc(N)cc4)c[nH]c3cc2Br)C1=O` [ExB14] was 5.00 to 6.30; that for `CSc1ccc(CCc2cc(/C=C3\SC(=O)N(C)C3=O)c(Br)cc2O)cc1` [ExB15] was 5.00 to 6.30. On to `CN1C(=O)S/C(=C\c2cc(C(F)(F)F)c(O)cc2Br)C1=O` [ExB16], for which the pIC50 was at least 6.30. The value for `O=C1/C(=C/c2cc(C(F)(F)F)c(O)cc2Br)Sc2ncccc21` [ExB17] was at least 6.30.

On to `CC(C)c1cc(/C=C2\SC(=O)N(C)C2=O)c(Br)cc1O` [ExB18], for which the negative-log IC50 (pIC50) was at most 5.00. On to `CC(C)c1cc(/C=C2\Sc3ncccc3C2=O)c(Br)cc1O` [ExB19], for which the pIC50 is at most 5.00. The value for `CN1C(=O)S/C(=C\c2cc(CC(F)(F)F)c(O)cc2Br)C1=O` [ExB20] was 5.00 to 6.30. As to `C/N=C1/S/C(=C\c2cc(OC)c(O)cc2Br)C(=O)N1C` [ExB22], the pIC50 was at most 5.00. Regarding `CC/N=C1/S/C(=C\c2cc(OC)c(O)cc2Br)C(=O)N1C` [ExB23], the negative logarithm of the IC50 (pIC50) is at most 5.00.

`CCC/N=C1/S/C(=C\c2cc(OC)c(O)cc2Br)C(=O)N1C` [ExB24]: the negative-log IC50 (pIC50) is at most 5.00. The value for `CN1C(=O)S/C(=C\c2cc(Oc3cccc4cnccc34)c(O)cc2Br)C1=O` [ExB25] was at most 5.00; that for `CN1C(=O)S/C(=C\c2cc(Oc3ccc(-c4ccccn4)cc3)c(O)cc2Br)C1=O` [ExB26] was at most 5.00; that for `CN1C(=O)S/C(=C\c2cc(Oc3cccc4c3COCC4)c(O)cc2Br)C1=O` [ExB27] was at most 5.00.

As to `CN1C(=O)S/C(=C\c2cc(Oc3ccc(-c4cccnc4)cc3)c(O)cc2Br)C1=O` [ExB28], the negative-log IC50 (pIC50) is at most 5.00.

In the case of `[2H]C(C)(Oc1cc(/C=C2\SC(=O)N(C)C2=O)c(Br)c(F)c1O)c1cnc(N)nc1` (stereo not shown) [ExB29], the pIC50 is at least 6.30. In the case of `CN1C(=O)S/C(=C\c2cc(Oc3cnc(N)s3)c(O)c(F)c2Br)C1=O` [ExB30], the pIC50 was 5.00 to 6.30.

As to `CCC(Oc1cc(/C=C2\SC(=O)N(C)C2=O)c(Br)c(F)c1O)c1cnc(Cl)nc1` (stereo not shown) [ExB31], the negative logarithm of the IC50 (pIC50) is 5.00 to 6.30. The value for `CN1C(=O)S/C(=C\c2cc(OCCc3cnc(N)nc3N)c(O)c(F)c2Br)C1=O` [ExB32] was at least 6.30; that for `CN1C(=O)S/C(=C\c2cc(OC(F)(F)F)c(Oc3cnc(N)s3)cc2Br)C1=O` [ExB33] was at most 5.00. For the molecule `CC(=O)c1cc(/C=C2\SC(=O)N(C)C2=O)c(Br)cc1Oc1cnc(N)s1` [ExB34], the pIC50 was at most 5.00. On to `CSc1ncncc1C(=O)C(C)Oc1cc(/C=C2\SC(=O)N(C)C2=O)c(Br)c(F)c1O` (stereo not shown) [ExB36], for which the pIC50 is at most 5.00.

For the molecule `CC(Oc1cc(/C=C2\SC(=O)N(C)C2=O)c(Br)c(F)c1O)C(O)c1cncnc1N` (stereo not shown) [ExB37], the pIC50 is at least 6.30. For the molecule `CN1C(=O)S/C(=C\c2cc(CCc3ccc([S+](C)[O-])cc3)c(O)cc2Br)C1=O` (stereo not shown) [ExB38], the negative logarithm of the IC50 (pIC50) was at most 5.00. With `CN1C(=O)S/C(=C\c2cc(CCc3cnc(N)nc3)c(O)cc2Br)C1=O` [ExB41], the negative logarithm of the IC50 (pIC50) was 5.00 to 6.30.

As for `Nc1ncc(/C=C/c2cc(/C=C3\Sc4ncccc4C3=O)c(Br)cc2O)cn1` [ExB42], the pIC50 is at least 6.30.
